Test results as given in US20250154115A1, “ARYLBENZOISOXAZOLE COMPOUNDS AS IP6K AND IPMK INHIBITORS AND METHODS OF USE THEREOF” (THE UNIVERSITY OF NORTH CAROLINA AT CHAPEL HILL, priority 2022, published 2025).

How the values were obtained:
Type in all cases: biochemical
IP6K3 = IP6K3 (Homo sapiens (Human), UniProt Q96PC2); experiment: Enzyme-coupled assay of IP6K3 activity (Dipp1-coupled, malachite green Pi release)
IPMK = IPMK (Homo sapiens (Human), UniProt Q8NFU5); experiment: Enzyme-coupled assay, IPMK IC50
IP6K2 = IP6K2 (Homo sapiens (Human), UniProt Q9UHH9); experiment: Enzyme-coupled assay of IP6K2 activity (Dipp1-coupled, malachite green Pi release)
Experimental: (§1) […] The cells were disrupted using a constant cell disruption system (Constant Systems) under 20 kPsi.
(§2) Pi release was determined with a malachite green colorimetric assay.^45 Where indicated, TNP (Cayman Chemical) was added to the assays (FIG. 2A-E).

IP6K1 = IP6K1 (Homo sapiens (Human), UniProt Q92551); experiment: Enzyme-coupled assay of IP6K1 activity (Dipp1-coupled, malachite green Pi release)
Experimental: as §1, §2

[1] = determined from enzyme-coupled assays

IP6K1, sequence (Q92551 whole entry): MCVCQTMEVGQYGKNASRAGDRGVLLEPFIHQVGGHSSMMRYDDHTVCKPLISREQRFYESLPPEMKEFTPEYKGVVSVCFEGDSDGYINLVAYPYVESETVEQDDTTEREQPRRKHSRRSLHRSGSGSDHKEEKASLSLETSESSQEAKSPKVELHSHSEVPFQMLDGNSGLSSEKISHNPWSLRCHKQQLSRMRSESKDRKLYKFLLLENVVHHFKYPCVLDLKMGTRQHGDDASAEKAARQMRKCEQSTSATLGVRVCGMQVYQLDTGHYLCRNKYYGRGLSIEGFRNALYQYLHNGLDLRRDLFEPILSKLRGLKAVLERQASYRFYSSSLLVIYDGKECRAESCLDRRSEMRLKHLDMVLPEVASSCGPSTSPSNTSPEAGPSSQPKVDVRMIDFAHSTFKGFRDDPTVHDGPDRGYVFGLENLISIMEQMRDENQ
IP6K3, sequence (Q96PC2 whole entry): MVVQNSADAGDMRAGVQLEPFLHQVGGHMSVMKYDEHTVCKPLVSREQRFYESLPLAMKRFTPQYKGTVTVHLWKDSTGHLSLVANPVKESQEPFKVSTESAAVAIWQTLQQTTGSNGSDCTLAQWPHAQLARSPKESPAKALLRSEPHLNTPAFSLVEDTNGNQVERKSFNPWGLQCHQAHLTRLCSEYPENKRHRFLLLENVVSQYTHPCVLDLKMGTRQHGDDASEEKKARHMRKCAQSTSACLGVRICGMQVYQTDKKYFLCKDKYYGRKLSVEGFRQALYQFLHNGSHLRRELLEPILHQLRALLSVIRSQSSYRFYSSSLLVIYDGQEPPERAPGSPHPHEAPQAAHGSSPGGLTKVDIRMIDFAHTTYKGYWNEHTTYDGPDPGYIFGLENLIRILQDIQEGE
IP6K2, sequence (Q9UHH9 whole entry): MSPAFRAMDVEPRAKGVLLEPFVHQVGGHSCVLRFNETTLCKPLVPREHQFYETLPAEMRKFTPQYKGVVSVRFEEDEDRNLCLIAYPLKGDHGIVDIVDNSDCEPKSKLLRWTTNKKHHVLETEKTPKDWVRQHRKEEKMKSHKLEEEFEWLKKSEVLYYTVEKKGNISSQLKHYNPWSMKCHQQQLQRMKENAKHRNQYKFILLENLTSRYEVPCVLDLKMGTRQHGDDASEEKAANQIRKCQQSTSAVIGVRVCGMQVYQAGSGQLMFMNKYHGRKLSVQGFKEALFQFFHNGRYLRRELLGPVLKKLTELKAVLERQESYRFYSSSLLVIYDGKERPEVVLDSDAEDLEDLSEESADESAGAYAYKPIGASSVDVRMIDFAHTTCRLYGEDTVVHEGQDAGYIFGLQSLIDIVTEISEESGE
IPMK, sequence (Q8NFU5 whole entry, species assumed): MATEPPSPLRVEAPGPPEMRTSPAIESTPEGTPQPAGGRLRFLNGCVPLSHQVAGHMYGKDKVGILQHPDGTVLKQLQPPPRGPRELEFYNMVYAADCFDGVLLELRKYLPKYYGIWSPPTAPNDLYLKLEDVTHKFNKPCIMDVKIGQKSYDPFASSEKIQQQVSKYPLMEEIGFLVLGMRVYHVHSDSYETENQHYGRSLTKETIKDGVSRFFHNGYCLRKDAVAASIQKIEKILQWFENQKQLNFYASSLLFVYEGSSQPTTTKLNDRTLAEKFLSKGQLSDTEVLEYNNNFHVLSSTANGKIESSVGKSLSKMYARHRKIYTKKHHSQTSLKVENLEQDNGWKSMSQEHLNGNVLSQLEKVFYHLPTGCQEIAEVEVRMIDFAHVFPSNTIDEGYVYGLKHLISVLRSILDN

O=C(O)c1ccc2noc(-c3cccc(Oc4ccccc4)c3)c2c1 [Compound 33]
IC50 (IP6K3; enzyme-coupled assay, Table 2): 100 to 1000 nM | IC50 (IPMK; enzyme-coupled assay, Table 2): 10 to 100 nM

CC(C)(C)OC(=O)N1CCC(Oc2cccc(-c3onc4ccc(-c5nnn[nH]5)cc34)c2)CC1 [Compound 81, tert-butyl 4-(3-(5-(1H-tetrazol-5-yl)benzo[c]isoxazol-3-yl)phenoxy)piperidine-1-carboxylate]
IC50 (IP6K2; enzyme-coupled assay, Table 4): […] | IC50 (IP6K3; enzyme-coupled assay, Table 4): 10 to 100 nM | IC50 (IPMK; enzyme-coupled assay, Table 4): < 10 nM

O=C(O)c1ccc2noc(-c3ccc(NC(=O)C4CCCC4)cc3)c2c1 [Compound 43]
IC50 (IP6K3; enzyme-coupled assay, Table 2): 100 to 1000 nM | IC50 (IPMK; enzyme-coupled assay, Table 2): 1000 to 100000 nM

CC(C)C(=O)Nc1ccc(-c2onc3ccc(C(=O)O)cc23)cc1 [Compound 36]
IC50 (IP6K2; enzyme-coupled assay, Table 2): 100 to 1000 nM | IC50 (IP6K3; enzyme-coupled assay, Table 2): 100 to 1000 nM | IC50 (IPMK; enzyme-coupled assay, Table 2): 1000 to 100000 nM

O=C(O)c1ccc2noc(-c3ccc(Oc4ncc(Cl)cc4Cl)cc3)c2c1 [Compound 28]
IC50 (IP6K1; enzyme-coupled assay, Table 2): 100 to 1000 nM | IC50 (IP6K3; enzyme-coupled assay, Table 2): 1000 to 100000 nM | IC50 (IPMK; enzyme-coupled assay, Table 2): 1000 to 100000 nM

c1cc(OCCN2CCOCC2)cc(-c2onc3ccc(-c4nnn[nH]4)cc23)c1 [Compound 83]
IC50 (IP6K1; enzyme-coupled assay, Table 4): 10 to 100 nM | IC50 (IP6K2; enzyme-coupled assay, Table 4): 100 to 1000 nM | IC50 (IP6K3; enzyme-coupled assay, Table 4): 100 to 1000 nM | IC50 (IPMK; enzyme-coupled assay, Table 4): 10 to 100 nM

O=C(O)c1ccc2noc(-c3ccc(-c4ccncc4)cc3)c2c1 [Compound 58]
IC50 (IP6K3; enzyme-coupled assay, Table 3): 100 to 1000 nM | IC50 (IPMK; enzyme-coupled assay, Table 3): 10 to 100 nM

O=C(O)c1ccc2noc(-c3ccc(C(=O)NCCC4CC4)cc3)c2c1 [Compound 39]
IC50 (IP6K1; enzyme-coupled assay, Table 2): 100 to 1000 nM | IC50 (IP6K2; enzyme-coupled assay, Table 2): 100 to 1000 nM | IC50 (IP6K3; enzyme-coupled assay, Table 2): 100 to 1000 nM | IC50 (IPMK; enzyme-coupled assay, Table 2): 100 to 1000 nM

Cc1cccc(-c2onc3ccc(C(=O)O)cc23)c1 [Compound 18, 3-(m-tolyl)benzo[c]isoxazole-5-carboxylic acid]
IC50 (IP6K3; enzyme-coupled assay, Table 2): 1000 to 100000 nM | IPMK IC50 (IPMK; enzyme-coupled assay, Table 2): −

Cc1cc(C)cc(-c2onc3ccc([C@@H]4C[C@H]4C(=O)O)cc23)c1 [Compound 17]
IC50 (IP6K1; enzyme-coupled assay, Table 1): 10 to 100 nM | IC50 (IP6K2; enzyme-coupled assay, Table 1): 10 to 100 nM | IC50 (IP6K3; enzyme-coupled assay, Table 1): 1000 to 100000 nM

CC(C)C(=O)Nc1cccc(-c2onc3ccc(-c4nnn[nH]4)cc23)c1 [Compound 75]
IC50 (IP6K1; enzyme-coupled assay, Table 4): 100 to 1000 nM | IC50 (IP6K2; enzyme-coupled assay, Table 4): 100 to 1000 nM | IC50 (IP6K3; enzyme-coupled assay, Table 4): 100 to 1000 nM | IC50 (IPMK; enzyme-coupled assay, Table 4): < 10 nM

O=C(O)c1ccc2noc(-c3ccc(NC(=O)c4ccc(Cl)cc4)cc3)c2c1 [Compound 45]
IC50 (IP6K1; enzyme-coupled assay, Table 2): 100 to 1000 nM | IC50 (IP6K2; enzyme-coupled assay, Table 2): 100 to 1000 nM | IC50 (IP6K3; enzyme-coupled assay, Table 2): 1000 to 100000 nM | IC50 (IPMK; enzyme-coupled assay, Table 2): 1000 to 100000 nM

O=C(Nc1ccc(-c2onc3ccc(-c4noc(=O)[nH]4)cc23)cc1)C1CC1 [Cmpd 126]
IC50 (IP6K1; [1]): 100 to 1000 nM | IC50 (IP6K2; [1]): 100 to 1000 nM | IC50 (IP6K3; [1]): 10 to 100 nM | IC50 (IPMK; [1]): 10 to 100 nM

O=C(Nc1ccc(-c2onc3ccc(-c4nnn[nH]4)cc23)cc1)C1CCCC1 [Compound 72]
IC50 (IP6K1; enzyme-coupled assay, Table 4): 10 to 100 nM | IC50 (IP6K2; enzyme-coupled assay, Table 4): 10 to 100 nM | IC50 (IP6K3; enzyme-coupled assay, Table 4): < 10 nM | IC50 (IPMK; enzyme-coupled assay, Table 4): 10 to 100 nM
